pIC50: −log10 of the molar value.
Legend:
CYP2D6 = CYP2D6 (Homo sapiens, UniProt P10635); assay: Inhibition of CYP2D6 (unknown origin); format: ADME
CYP2C8 = target: T1, CYP2C8 (Homo sapiens, UniProt P10632); assay: Inhibition of CYP2C8 (unknown origin); format: ADME
T1 sequence (P10632 whole entry): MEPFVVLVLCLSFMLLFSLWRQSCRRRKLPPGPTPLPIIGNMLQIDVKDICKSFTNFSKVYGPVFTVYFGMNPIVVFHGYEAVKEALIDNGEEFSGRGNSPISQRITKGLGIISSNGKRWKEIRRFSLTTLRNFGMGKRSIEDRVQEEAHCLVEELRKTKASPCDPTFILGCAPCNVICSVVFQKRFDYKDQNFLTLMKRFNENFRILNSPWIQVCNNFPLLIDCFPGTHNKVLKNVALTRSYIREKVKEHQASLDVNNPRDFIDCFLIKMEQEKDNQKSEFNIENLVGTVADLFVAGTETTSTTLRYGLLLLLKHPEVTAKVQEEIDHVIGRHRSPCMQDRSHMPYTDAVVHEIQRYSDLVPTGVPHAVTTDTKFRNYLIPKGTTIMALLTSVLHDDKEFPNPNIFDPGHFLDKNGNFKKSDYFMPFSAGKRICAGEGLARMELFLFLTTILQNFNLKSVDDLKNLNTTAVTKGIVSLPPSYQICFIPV

CYP2B6 = target: T2, CYP2B6 (Homo sapiens, UniProt P20813); assay: Inhibition of CYP2B6 (unknown origin); format: ADME
T2 sequence (P20813 whole entry): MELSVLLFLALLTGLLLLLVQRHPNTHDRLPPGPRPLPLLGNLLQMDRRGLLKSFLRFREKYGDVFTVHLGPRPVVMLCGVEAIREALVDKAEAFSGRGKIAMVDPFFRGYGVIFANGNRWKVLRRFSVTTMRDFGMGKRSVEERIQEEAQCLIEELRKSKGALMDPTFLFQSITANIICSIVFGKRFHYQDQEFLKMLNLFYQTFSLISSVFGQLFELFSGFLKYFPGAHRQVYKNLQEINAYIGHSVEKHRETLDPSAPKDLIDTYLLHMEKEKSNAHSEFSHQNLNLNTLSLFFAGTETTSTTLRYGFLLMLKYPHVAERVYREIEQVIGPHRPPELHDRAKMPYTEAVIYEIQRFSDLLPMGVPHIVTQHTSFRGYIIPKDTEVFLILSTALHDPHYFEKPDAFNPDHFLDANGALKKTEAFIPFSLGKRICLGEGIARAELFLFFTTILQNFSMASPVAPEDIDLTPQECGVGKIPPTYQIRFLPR

[1] = AUC (0 to infinity) in rat at 0.3 mg/kg, iv; format: ADME, organism-based; design: dose 0.3 mg/kg, route intravenous, time infinity; settings: in vivo
[2] = Total clearance in rat at 0.3 mg/kg, iv; format: ADME, organism-based; settings: in vivo
[3] = Oral bioavailability in monkey at 1 mg/kg; format: ADME, organism-based, Macaca mulatta; settings: rhesus monkey, in vivo
CYP2E1 = CYP2E1 (Homo sapiens, UniProt P05181); assay: Inhibition of CYP2E1 (unknown origin); format: ADME
CYP2E1, sequence (P05181 whole entry): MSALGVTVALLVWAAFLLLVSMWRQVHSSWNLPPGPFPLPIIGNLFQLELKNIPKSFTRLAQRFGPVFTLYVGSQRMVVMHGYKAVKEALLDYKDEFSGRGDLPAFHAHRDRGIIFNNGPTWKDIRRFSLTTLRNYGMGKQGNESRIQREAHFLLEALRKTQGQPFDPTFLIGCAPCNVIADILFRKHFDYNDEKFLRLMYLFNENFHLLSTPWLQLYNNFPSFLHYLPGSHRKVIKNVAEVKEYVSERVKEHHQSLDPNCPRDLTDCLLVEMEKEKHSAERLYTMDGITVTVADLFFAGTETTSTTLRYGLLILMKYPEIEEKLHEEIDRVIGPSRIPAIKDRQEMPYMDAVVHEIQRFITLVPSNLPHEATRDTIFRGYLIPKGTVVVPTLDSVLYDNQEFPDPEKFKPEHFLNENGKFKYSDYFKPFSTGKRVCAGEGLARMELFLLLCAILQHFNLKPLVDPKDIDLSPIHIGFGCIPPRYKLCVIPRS

[4] = AUC (0 to infinity) in monkey at 0.3 mg/kg, iv; format: ADME, organism-based, Macaca mulatta; design: dose 0.3 mg/kg, time infinity, route intravenous; settings: rhesus monkey, in vivo
[5] = Initial plasma concentration in monkey at 0.3 mg/kg, iv; format: ADME, organism-based, Macaca mulatta; settings: rhesus monkey
[6] = Half life in monkey at 1 mg/kg, po; format: ADME, organism-based, Macaca mulatta; settings: rhesus monkey, in vivo
[7] = Tmax in monkey at 1 mg/kg, po; format: ADME, organism-based, Macaca mulatta; settings: rhesus monkey, in vivo
[8] = Half life in monkey at 0.3 mg/kg, iv; format: ADME, organism-based, Macaca mulatta; settings: rhesus monkey, in vivo
[9] = Volume of distribution at steady state in monkey at 0.3 mg/kg, iv; format: ADME, organism-based, Macaca mulatta; settings: rhesus monkey, in vivo, read-out: Vdss
CYP2C19 = CYP2C19 (Homo sapiens, UniProt P33261); assay: Inhibition of CYP2C19 (unknown origin); format: ADME
CYP2C19, sequence (P33261 whole entry): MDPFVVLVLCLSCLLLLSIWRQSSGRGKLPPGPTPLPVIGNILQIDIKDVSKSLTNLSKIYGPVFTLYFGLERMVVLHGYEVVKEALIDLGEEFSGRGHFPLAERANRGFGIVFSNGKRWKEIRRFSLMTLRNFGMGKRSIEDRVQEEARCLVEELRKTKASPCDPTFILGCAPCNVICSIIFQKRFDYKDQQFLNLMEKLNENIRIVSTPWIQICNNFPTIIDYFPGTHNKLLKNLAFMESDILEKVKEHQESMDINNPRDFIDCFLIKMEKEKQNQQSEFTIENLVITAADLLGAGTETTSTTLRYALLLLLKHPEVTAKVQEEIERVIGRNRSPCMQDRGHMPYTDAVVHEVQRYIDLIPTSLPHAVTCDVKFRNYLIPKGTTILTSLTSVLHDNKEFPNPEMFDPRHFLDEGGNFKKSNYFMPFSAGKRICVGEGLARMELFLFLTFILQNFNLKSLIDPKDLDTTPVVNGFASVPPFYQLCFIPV

[10] = Cmax in rat at 1 mg/kg, po; format: ADME, organism-based; design: dose 1 mg/kg, route oral; settings: in vivo
[11] = target: T3, Extracellular calcium-sensing receptor (Rattus norvegicus, UniProt P48442); assay: Agonist activity at CaSR in rat parathyroid cells assessed as inhibition of PTH (1 to 84 residues) production in presence of Cacl2 by ELISA; format: functional, cell-based
T3 sequence (P48442 whole entry): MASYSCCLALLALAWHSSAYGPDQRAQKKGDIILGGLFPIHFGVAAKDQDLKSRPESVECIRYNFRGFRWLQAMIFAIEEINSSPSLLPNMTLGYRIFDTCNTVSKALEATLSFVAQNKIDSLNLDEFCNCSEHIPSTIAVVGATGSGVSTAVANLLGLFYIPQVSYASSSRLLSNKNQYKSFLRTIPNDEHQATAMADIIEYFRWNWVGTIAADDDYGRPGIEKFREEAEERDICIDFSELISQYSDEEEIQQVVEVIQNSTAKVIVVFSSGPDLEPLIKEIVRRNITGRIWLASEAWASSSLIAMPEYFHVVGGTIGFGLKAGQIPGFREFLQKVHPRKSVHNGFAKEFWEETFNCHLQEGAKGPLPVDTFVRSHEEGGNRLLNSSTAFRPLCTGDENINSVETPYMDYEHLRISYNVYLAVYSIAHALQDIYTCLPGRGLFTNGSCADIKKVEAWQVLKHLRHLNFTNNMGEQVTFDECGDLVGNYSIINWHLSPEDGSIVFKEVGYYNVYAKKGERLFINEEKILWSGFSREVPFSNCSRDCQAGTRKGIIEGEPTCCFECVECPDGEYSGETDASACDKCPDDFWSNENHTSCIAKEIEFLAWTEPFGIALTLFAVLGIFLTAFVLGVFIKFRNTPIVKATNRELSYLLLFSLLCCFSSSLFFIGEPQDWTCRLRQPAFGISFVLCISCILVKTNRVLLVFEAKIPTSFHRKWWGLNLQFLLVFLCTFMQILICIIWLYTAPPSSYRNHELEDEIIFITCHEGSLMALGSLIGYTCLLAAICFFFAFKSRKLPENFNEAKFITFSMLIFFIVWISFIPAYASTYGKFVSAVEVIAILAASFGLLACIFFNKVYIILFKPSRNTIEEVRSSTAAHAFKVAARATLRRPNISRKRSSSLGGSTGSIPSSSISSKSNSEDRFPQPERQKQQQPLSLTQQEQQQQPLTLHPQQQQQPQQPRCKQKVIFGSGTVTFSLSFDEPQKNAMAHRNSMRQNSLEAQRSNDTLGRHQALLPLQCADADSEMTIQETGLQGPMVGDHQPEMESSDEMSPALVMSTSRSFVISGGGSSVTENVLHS

[12] = Intrinsic clearance in human liver microsomes assessed per protein; format: ADME, microsome; settings: read-out: CLH
[13] = Cmax in monkey at 1 mg/kg, po; format: ADME, organism-based, Macaca mulatta; design: dose 1 mg/kg, route oral; settings: rhesus monkey, in vivo
[14] = AUC (0 to infinity) in rat at 1 mg/kg, po; format: ADME, organism-based; design: dose 1 mg/kg, route oral, time infinity; settings: in vivo
[15] = AUC (0 to infinity) in monkey at 1 mg/kg, po; format: ADME, organism-based, Macaca mulatta; design: dose 1 mg/kg, time infinity, route oral; settings: rhesus monkey, in vivo
[16] = Oral bioavailability in rat at 1 mg/kg; format: ADME, organism-based; settings: in vivo
[17] = Initial plasma concentration in rat at 0.3 mg/kg, iv; format: ADME, organism-based
[18] = Total clearance in monkey at 0.3 mg/kg, iv; format: ADME, organism-based, Macaca mulatta; settings: rhesus monkey, in vivo
CYP2C9 = CYP2C9 (Homo sapiens, UniProt P11712); assay: Inhibition of CYP2C9 (unknown origin); format: ADME
CYP2C9, sequence (P11712 whole entry): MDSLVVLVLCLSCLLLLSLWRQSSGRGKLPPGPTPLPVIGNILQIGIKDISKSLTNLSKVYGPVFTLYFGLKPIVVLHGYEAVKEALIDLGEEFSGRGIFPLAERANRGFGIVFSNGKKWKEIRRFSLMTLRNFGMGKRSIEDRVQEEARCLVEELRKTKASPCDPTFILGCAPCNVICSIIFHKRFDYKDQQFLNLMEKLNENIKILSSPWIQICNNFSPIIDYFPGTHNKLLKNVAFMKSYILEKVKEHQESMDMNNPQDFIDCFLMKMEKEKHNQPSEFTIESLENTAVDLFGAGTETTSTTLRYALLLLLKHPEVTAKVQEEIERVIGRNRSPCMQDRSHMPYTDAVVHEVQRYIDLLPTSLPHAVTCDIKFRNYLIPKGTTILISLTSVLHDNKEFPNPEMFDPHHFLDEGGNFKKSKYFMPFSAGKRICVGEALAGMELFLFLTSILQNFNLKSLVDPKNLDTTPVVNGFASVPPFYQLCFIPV

CYP2D6, sequence (P10635 whole entry): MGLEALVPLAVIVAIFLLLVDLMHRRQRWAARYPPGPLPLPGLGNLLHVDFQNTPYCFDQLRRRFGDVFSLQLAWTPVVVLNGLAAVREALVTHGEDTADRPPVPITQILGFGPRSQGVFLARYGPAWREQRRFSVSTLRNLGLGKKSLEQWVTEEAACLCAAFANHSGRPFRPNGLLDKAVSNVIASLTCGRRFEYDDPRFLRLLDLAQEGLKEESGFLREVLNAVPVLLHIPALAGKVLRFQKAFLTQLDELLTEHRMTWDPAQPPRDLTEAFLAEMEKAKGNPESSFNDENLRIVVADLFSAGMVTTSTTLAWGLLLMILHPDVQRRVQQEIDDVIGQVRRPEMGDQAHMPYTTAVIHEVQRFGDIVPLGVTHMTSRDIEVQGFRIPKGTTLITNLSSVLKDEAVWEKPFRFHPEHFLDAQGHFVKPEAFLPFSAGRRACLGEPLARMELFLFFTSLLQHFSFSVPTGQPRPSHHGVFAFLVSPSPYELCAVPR

pIC50 (CYP2D6): < 4.30
pIC50 (CYP2C8): < 4.30
pIC50 (CYP2B6): < 4.30
AUC(0-inf) [1]: 3010 ng·h/mL
clearance [2]: 1.67 mL/min/kg
bioavailability [3]: 55.8%
pIC50 (CYP2E1): < 4.30
AUC(0-inf) [4]: 987 ng·h/mL
C0 [5]: 1630 ng/mL
half-life [6]: 8.94 h
Tmax [7]: 1.38 h
half-life [8]: 10.2 h
Vd [9]: 0.716 L/kg
pIC50 (CYP2C19): < 4.30
Cmax [10]: 2190 ng/mL
pIC50 [11]: 7.51
microsomal CLint [12]: 68 µL/min/mg
Cmax [13]: 746 ng/mL
AUC(0-inf) [14]: 8440 ng·h/mL
AUC(0-inf) [15]: 1660 ng·h/mL
bioavailability [16]: 84.2%
C0 [17]: 1080 ng/mL
clearance [18]: 5.37 mL/min/kg
pIC50 (CYP2C9): < 4.30
SMILES: C[C@@H](N[C@H]1CCN(c2ccc(CC(=O)O)cc2)C1)c1cccc2ccccc12.Cl.Cl

Source: ChEMBL document CHEMBL4118154, “Discovery of evocalcet, a next-generation calcium-sensing receptor agonist for the treatment of hyperparathyroidism” (Bioorg Med Chem Lett, 2018)
